Test results taken from patent US12384797B2, “Thioeno[3,2-b] pyridin-7-amine compounds for treating familial dysautonomia” (PTC THERAPEUTICS, INC., priority 2019, dated 2025).

Tested on: Elongator complex protein 1 (ELP1, also referred to as IKBKAP)
Test: IKBKAP-HTRF assay (IKBKAP protein in lysates of FD patient-derived fibroblasts)
Assay type: cell-based, human
Details: 48 hours incubation, 7-point concentration curve
In short: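 Sandwich HTRF with two labelled anti-IKAP antibodies (overnight, 4 °C) measured IKBKAP in lysates of FD patient fibroblasts. Cells were exposed to compound for 48 h at 37 °C (7-point curve, 3.16-fold steps, triplicates). EC2x is the dose doubling IKBKAP versus DMSO control; MFI is sample ΔF divided by vehicle ΔF.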

| SMILES | EC2x for IKBKAP protein expression (concentration producing two times the amount of IKBKAP protein vs DMSO vehicle control) | MFI (maximum fold increase in IKBKAP protein abundance relative to the vehicle control) |
| --- | --- | --- |
| Cc1c(C[C@@H](N)[C@H](C)F)sc2c(NCc3cccs3)cc(Cl)nc12 [Compound 126, 2-[(2R,3S)-2-amino-3-fluorobutyl]-5-chloro-3-methyl-N-[(thiophen-2-yl)methyl]thieno[3,2-b]pyridin-7-amine] | ***** (≤0.005 μM is indicated by five stars (*****)) | ***** (>4.9 is indicated by five stars (*****)) |
| C[C@H](N)C(O)c1sc2c(NCc3cccs3)cc(Cl)nc2c1Cl (stereo partly drawn) [Compound 127, (2S)-2-amino-1-(3,5-dichloro-7-{[(thiophen-2-yl)methyl]amino}thieno[3,2-b]pyridin-2-yl)propan-1-ol] | **** (between >0.005 μM and ≤0.02 μM is indicated by four stars (****)) | ***** (>4.9 is indicated by five stars (*****)) |
| Cc1c(C[C@@H](N)[C@H](C)F)sc2c(NCc3nccs3)cc(Cl)nc12 [Compound 128, 2-[(2R,3S)-2-amino-3-fluorobutyl]-5-chloro-3-methyl-N-[(1,3-thiazol-2-yl)methyl]thieno[3,2-b]pyridin-7-amine] | ***** (≤0.005 μM is indicated by five stars (*****)) | ***** (>4.9 is indicated by five stars (*****)) |
| Cc1c(C[C@H](C)N)sc2c(NCc3ncc(F)s3)cc(Cl)nc12 [Compound 129, 2-[(2S)-2-aminopropyl]-5-chloro-N-[(5-fluoro-1,3-thiazol-2-yl)methyl]-3-methylthieno[3,2-b]pyridin-7-amine] | **** (between >0.005 μM and ≤0.02 μM is indicated by four stars (****)) | ***** (>4.9 is indicated by five stars (*****)) |
| C[C@H](N)C(F)c1sc2c(NCc3cccs3)cc(Cl)nc2c1Cl (stereo partly drawn) [Compound 130, 2-[(2S)-2-amino-1-fluoropropyl]-3,5-dichloro-N-[(thiophen-2-yl)methyl]thieno[3,2-b]pyridin-7-amine] | ***** (≤0.005 μM is indicated by five stars (*****)) | ***** (>4.9 is indicated by five stars (*****)) |
| COC(=O)[C@H](N)Cc1sc2c(NCc3ccco3)cc(Cl)nc2c1C [Compound 131, methyl 3-(5-chloro-7-{[(furan-2-yl)methyl]amino}-3-methylthieno[3,2-b]pyridin-2-yl)-D-alaninate] | **** (between >0.005 μM and ≤0.02 μM is indicated by four stars (****)) | **** (between >3.9 and ≤4.9 is indicated by four stars (****)) |
| C[C@H](N)C(F)(F)c1sc2c(NCc3cccs3)cc(Cl)nc2c1Cl [Compound 132, 2-[(2S)-2-amino-1,1-difluoropropyl]-3,5-dichloro-N-[(thiophen-2-yl)methyl]thieno[3,2-b]pyridin-7-amine] | **** (between >0.005 μM and ≤0.02 μM is indicated by four stars (****)) | ***** (>4.9 is indicated by five stars (*****)) |
| Cc1c(C[C@@H](N)C(=O)Nc2ccc(C#N)cc2)sc2c(NCc3ccco3)cc(Cl)nc12 [Compound 133, 3-(5-chloro-7-{[(furan-2-yl)methyl]amino}-3-methylthieno[3,2-b]pyridin-2-yl)-N-(4-cyanophenyl)-D-alaninamide] | ***** (≤0.005 μM is indicated by five stars (*****)) | ***** (>4.9 is indicated by five stars (*****)) |
| Cc1c(C[C@@H](N)C(=O)Nc2ccccn2)sc2c(NCc3ccco3)cc(Cl)nc12 [Compound 134, 3-(5-chloro-7-{[(furan-2-yl)methyl]amino}-3-methylthieno[3,2-b]pyridin-2-yl)-N-pyridin-2-yl-D-alaninamide] | **** (between >0.005 μM and ≤0.02 μM is indicated by four stars (****)) | ***** (>4.9 is indicated by five stars (*****)) |
| Cc1c(C[C@@H](N)C(=O)Nc2cnccn2)sc2c(NCc3ccco3)cc(Cl)nc12 [Compound 135, 3-(5-chloro-7-{[(furan-2-yl)methyl]amino}-3-methylthieno[3,2-b]pyridin-2-yl)-N-pyrazin-2-yl-D-alaninamide] | ***** (≤0.005 μM is indicated by five stars (*****)) | **** (between >3.9 and ≤4.9 is indicated by four stars (****)) |
| COc1c(C[C@H](C)N)sc2c(NCc3ccco3)cc(Cl)nc12 [Compound 136, 2-[(2S)-2-aminopropyl]-5-chloro-N-[(furan-2-yl)methyl]-3-methoxythieno[3,2-b]pyridin-7-amine] | ***** (≤0.005 μM is indicated by five stars (*****)) | ***** (>4.9 is indicated by five stars (*****)) |
| COc1csc2c(NCc3ccco3)cc(Cl)nc12 [Compound 137, 5-chloro-N-[(furan-2-yl)methyl]-3-methoxythieno[3,2-b]pyridin-7-amine] | *** (between >0.02 μM and ≤0.5 μM is indicated by three stars (***)) | ***** (>4.9 is indicated by five stars (*****)) |
| Oc1csc2c(NCc3cccs3)cc(Cl)nc12 [Compound 138, 5-chloro-7-{[(thiophen-2-yl)methyl]amino}thieno[3,2-b]pyridin-3-ol] | *** (between >0.02 μM and ≤0.5 μM is indicated by three stars (***)) | ** (between >1.9 and ≤2.9 is indicated by two stars (**)) |
| C[C@H](N)Cc1sc2c(NCc3cccs3)cc(Cl)nc2c1OC(F)F [Compound 139, 2-[(2S)-2-aminopropyl]-5-chloro-3-(difluoromethoxy)-N-[(thiophen-2-yl)methyl]thieno[3,2-b]pyridin-7-amine] | ***** (≤0.005 μM is indicated by five stars (*****)) | **** (between >3.9 and ≤4.9 is indicated by four stars (****)) |
| Cc1c(C[C@@H](N)C(=O)Nc2ccncc2)sc2c(NCc3ccco3)cc(Cl)nc12 [Compound 140, 3-(5-chloro-7-{[(furan-2-yl)methyl]amino}-3-methylthieno[3,2-b]pyridin-2-yl)-N-pyridin-4-yl-D-alaninamide] | ***** (≤0.005 μM is indicated by five stars (*****)) | ***** (>4.9 is indicated by five stars (*****)) |
